These results are taken from US20250009756A1 (Acerus Biopharma Inc., priority 2012, published 2025).

Data set [1] is described as follows: Solubility of testosterone in water, solvents, oils and vehicles.
A short description of another data set: pKa of testosterone. The settings on record: deduced from the molecular structure.

Entries after “also recorded” stand apart in the source; their conditions may differ.

Take `C[C@]12CC[C@H]3[C@@H](CCC4=CC(=O)CC[C@@]43C)[C@@H]1CC[C@@H]2O` [Testosterone, 17ß-Hydroxyandrost-4-en-3-one]: the Solubility in oils entry in data set [1] (castor oil) was “up to 4%”; in data set [1] (corn oil) it was 0.5%; in data set [1] (cottonseed oil), 0.7%; in data set [1] (isopropylmyristate) it was 0.8%; in data set [1] (peanut oil) it was 0.5%; in data set [1] (soybean oil) it was 0.6%. Besides, the “Solubility in castor oil” value is 3.6% in data set [1] (castor oil pure, maximum); ~3.36% in data set [1] (castor oil with 4% Labrafil); “up to 4.5%” in data set [1] (with fumed silica (Aerosil, CabOsil) and 4.0% Labrafil). Also, the “Solubility (descriptive)” value in data set [1] (solvent named in the value) is “freely soluble in methanol and ethanol; also recorded: soluble in acetone and isopropanol; also recorded: insoluble in n-heptane”. Also, the pKa entry in the data set “pKa of testosterone” is reported as “no pKa value in the range 1-14”.
